Measurements from the NIST ThermoML archive (doi:10.1016/j.jct.2019.02.011).
Numbers after ± are expanded uncertainties.

Experiment: xn = mol fraction of the nth substance listed
Settings: Liquid, Vibrating tube method

COC(=O)OC [dimethyl carbonate] + CCO
mass density [kg/m3]
Settings	100 kPa	5000 kPa	10000 kPa	15000 kPa	20000 kPa	25000 kPa	30000 kPa	35000 kPa	40000 kPa
293.15 K, x1 = 0.0252	–	–	–	811.64 ± 1.4	815.31 ± 1.4	819.03 ± 1.4	822.43 ± 1.4	825.77 ± 1.4	828.8 ± 1.4
293.15 K, x1 = 0.0506	–	–	–	821.2 ± 1.4	824.93 ± 1.4	828.7 ± 1.4	832.16 ± 1.4	835.5 ± 1.4	838.59 ± 1.4
293.15 K, x1 = 0.0757	–	–	–	830.53 ± 1.4	834.27 ± 1.4	838.04 ± 1.4	841.5 ± 1.4	844.9 ± 1.4	848.05 ± 1.4
293.15 K, x1 = 0.1003	–	–	–	839.43 ± 1.4	843.17 ± 1.4	846.95 ± 1.4	850.46 ± 1.4	853.86 ± 1.4	857.02 ± 1.4
293.15 K, x1 = 0.1508	–	–	–	857.39 ± 1.4	861.19 ± 1.4	864.97 ± 1.4	868.5 ± 1.4	871.96 ± 1.4	875.19 ± 1.4
293.15 K, x1 = 0.2	–	–	–	874.34 ± 1.4	878.21 ± 1.4	882.03 ± 1.4	885.62 ± 1.4	889.09 ± 1.4	892.34 ± 1.4
293.15 K, x1 = 0.2547	–	–	888.37 ± 1.4	892.5 ± 1.4	896.38 ± 1.4	900.3 ± 1.4	903.95 ± 1.4	907.43 ± 1.4	910.71 ± 1.4
293.15 K, x1 = 0.3002	–	–	903.11 ± 1.4	907.24 ± 1.4	911.13 ± 1.4	915.06 ± 1.4	918.71 ± 1.4	922.25 ± 1.4	925.54 ± 1.5
293.15 K, x1 = 0.3498	–	–	918.65 ± 1.4	922.78 ± 1.4	926.73 ± 1.4	930.66 ± 1.4	934.33 ± 1.5	937.83 ± 1.5	941.14 ± 1.5
293.15 K, x1 = 0.4	–	–	933.81 ± 1.4	937.95 ± 1.4	941.91 ± 1.5	945.85 ± 1.5	949.52 ± 1.5	953.08 ± 1.5	956.41 ± 1.5
293.15 K, x1 = 0.449	–	–	948.11 ± 1.5	952.25 ± 1.5	956.22 ± 1.5	960.16 ± 1.5	963.84 ± 1.5	967.41 ± 1.5	970.75 ± 1.5
293.15 K, x1 = 0.4996	–	–	962.37 ± 1.5	966.52 ± 1.5	970.5 ± 1.5	974.44 ± 1.5	978.13 ± 1.5	981.71 ± 1.5	985.12 ± 1.5
293.15 K, x1 = 0.5507	–	–	976.3 ± 1.5	980.45 ± 1.5	984.45 ± 1.5	988.38 ± 1.5	992.09 ± 1.5	995.67 ± 1.5	999.1 ± 1.5
293.15 K, x1 = 0.6005	–	–	989.41 ± 1.5	993.51 ± 1.5	997.52 ± 1.5	1001.46 ± 1.5	1005.17 ± 1.5	1008.76 ± 1.5	1012.2 ± 1.5
293.15 K, x1 = 0.6455	–	–	1000.79 ± 1.5	1004.95 ± 1.5	1008.96 ± 1.5	1012.9 ± 1.5	1016.62 ± 1.5	1020.22 ± 1.5	1023.68 ± 1.5
293.15 K, x1 = 0.6931	–	–	1012.44 ± 1.5	1016.6 ± 1.5	1020.62 ± 1.5	1024.56 ± 1.5	1028.29 ± 1.5	1031.89 ± 1.5	1035.36 ± 1.5
293.15 K, x1 = 0.7502	–	–	1025.93 ± 1.5	1030.04 ± 1.5	1034.07 ± 1.5	1038.07 ± 1.5	1041.8 ± 1.5	1045.41 ± 1.5	1048.9 ± 1.5
293.15 K, x1 = 0.8009	–	–	1037.44 ± 1.5	1041.56 ± 1.5	1045.6 ± 1.5	1049.6 ± 1.5	1053.34 ± 1.6	1056.96 ± 1.6	1060.46 ± 1.6
293.15 K, x1 = 0.8505	–	–	1048.32 ± 1.5	1052.45 ± 1.5	1056.49 ± 1.6	1060.49 ± 1.6	1064.24 ± 1.6	1067.85 ± 1.6	1071.38 ± 1.6
293.15 K, x1 = 0.9008	–	–	1058.94 ± 1.6	1063.09 ± 1.6	1067.15 ± 1.6	1071.17 ± 1.6	1074.9 ± 1.6	1078.5 ± 1.6	1082.06 ± 1.6
293.15 K, x1 = 0.9255	–	–	1064.04 ± 1.6	1068.18 ± 1.6	1072.28 ± 1.6	1076.27 ± 1.6	1080.01 ± 1.6	1083.62 ± 1.6	1087.15 ± 1.6
293.15 K, x1 = 0.9477	–	–	1068.54 ± 1.6	1072.7 ± 1.6	1076.81 ± 1.6	1080.81 ± 1.6	1084.52 ± 1.6	1088.13 ± 1.6	1091.64 ± 1.6
293.15 K, x1 = 0.9735	–	–	1073.72 ± 1.6	1077.83 ± 1.6	1081.94 ± 1.6	1085.94 ± 1.6	1089.66 ± 1.6	1093.25 ± 1.6	1096.74 ± 1.6
293.15 K, x1 = 1	–	–	1078.93 ± 0.58	1083.01 ± 0.59	1087.08 ± 0.6	1091.03 ± 0.61	1094.75 ± 0.63	1098.34 ± 0.64	1101.84 ± 0.66
298.15 K, x1 = 0.0252	795.08 ± 1.4	799.26 ± 1.4	803.35 ± 1.4	807.39 ± 1.4	811.05 ± 1.4	–	–	–	–
298.15 K, x1 = 0.0506	804.43 ± 1.4	808.65 ± 1.4	812.8 ± 1.4	816.89 ± 1.4	820.61 ± 1.4	–	–	–	–
298.15 K, x1 = 0.0757	813.64 ± 1.4	817.91 ± 1.4	822.06 ± 1.4	826.15 ± 1.4	829.93 ± 1.4	–	–	–	–
298.15 K, x1 = 0.1003	822.42 ± 1.4	826.69 ± 1.4	830.89 ± 1.4	834.98 ± 1.4	838.77 ± 1.4	–	–	–	–
298.15 K, x1 = 0.1508	840.14 ± 1.4	844.46 ± 1.4	848.67 ± 1.4	852.81 ± 1.4	856.66 ± 1.4	–	–	–	–
298.15 K, x1 = 0.2	856.81 ± 1.4	861.18 ± 1.4	865.45 ± 1.4	869.59 ± 1.4	873.46 ± 1.4	–	–	–	–
298.15 K, x1 = 0.2547	874.78 ± 1.4	879.19 ± 1.4	883.47 ± 1.4	887.66 ± 1.4	891.55 ± 1.4	–	–	–	–
298.15 K, x1 = 0.3002	889.24 ± 1.4	893.65 ± 1.4	897.98 ± 1.4	902.17 ± 1.4	906.13 ± 1.4	–	–	–	–
298.15 K, x1 = 0.3498	904.6 ± 1.4	909.01 ± 1.4	913.35 ± 1.4	917.59 ± 1.4	921.56 ± 1.4	–	–	–	–
298.15 K, x1 = 0.4	919.63 ± 1.4	924.09 ± 1.4	928.49 ± 1.4	932.73 ± 1.4	936.77 ± 1.5	–	–	–	–
298.15 K, x1 = 0.449	933.8 ± 1.4	938.26 ± 1.4	942.66 ± 1.5	946.91 ± 1.5	950.95 ± 1.5	–	–	–	–
298.15 K, x1 = 0.4996	947.93 ± 1.5	952.44 ± 1.5	956.85 ± 1.5	961.1 ± 1.5	965.16 ± 1.5	–	–	–	–
298.15 K, x1 = 0.5507	961.74 ± 1.5	966.24 ± 1.5	970.71 ± 1.5	974.95 ± 1.5	–	–	–	–	–
298.15 K, x1 = 0.6005	974.67 ± 1.5	979.17 ± 1.5	983.64 ± 1.5	987.89 ± 1.5	–	–	–	–	–
298.15 K, x1 = 0.6455	985.93 ± 1.5	990.48 ± 1.5	994.96 ± 1.5	999.21 ± 1.5	–	–	–	–	–
298.15 K, x1 = 0.6931	997.5 ± 1.5	1002.05 ± 1.5	1006.53 ± 1.5	1010.78 ± 1.5	–	–	–	–	–
298.15 K, x1 = 0.7502	1010.81 ± 1.5	1015.36 ± 1.5	1019.85 ± 1.5	1024.1 ± 1.5	–	–	–	–	–
298.15 K, x1 = 0.8009	1022.25 ± 1.5	1026.8 ± 1.5	1031.29 ± 1.5	1035.55 ± 1.5	–	–	–	–	–
298.15 K, x1 = 0.8505	1033.01 ± 1.5	1037.56 ± 1.5	1042.06 ± 1.5	1046.31 ± 1.5	–	–	–	–	–
298.15 K, x1 = 0.9008	1043.58 ± 1.5	1048.13 ± 1.5	1052.63 ± 1.5	1056.89 ± 1.6	–	–	–	–	–
298.15 K, x1 = 0.9255	1048.64 ± 1.5	1053.19 ± 1.5	1057.7 ± 1.6	1061.95 ± 1.6	–	–	–	–	–
298.15 K, x1 = 0.9477	1053.11 ± 1.5	1057.69 ± 1.6	1062.19 ± 1.6	1066.43 ± 1.6	–	–	–	–	–
298.15 K, x1 = 0.9735	1058.28 ± 1.6	1062.83 ± 1.6	1067.34 ± 1.6	1071.56 ± 1.6	–	–	–	–	–
298.15 K, x1 = 1	1063.45 ± 0.56	1068 ± 0.57	1072.51 ± 0.58	1076.72 ± 0.59	–	–	–	–	–
